According to the OligoGym collection:
Values joined by “and” are separate entries in the source; they are usually repeats but may differ in a detail not shown here. Identical values can stand only once. After the bases stand the sugars from the 5' end (letter, count) and the backbone: PS all phosphorothioate, else s phosphorothioate and o phosphodiester by linkage. Methylation of C is not given here. e = 2'-O-(2-methoxyethyl) (MOE); k = constrained ethyl (cEt); d = 2'-deoxy (DNA)

Target: SOD1
Settings: ASO

**Q.** How did the target mRNA inhibition (HepG2, 5 µM) turn out when “CCCATCTGTGATTTAAGTCT (sugars e5 d10 e5, PS)” was run?
**A.** 41%

**Q.** With “TCCAAGGGAATGTTTAT (sugars e3 k2 d7 k2 e3, PS)” as the sequence, how does the target mRNA inhibition (HepG2, 3 µM) read?
**A.** 32%

**Q.** How did the target mRNA inhibition (HepG2, 5 µM) turn out when “GCCATACAGGGTTTTTA (sugars e2 k2 d8 k2 e3, PS)” was run?
**A.** 13%

**Q.** How did the target mRNA inhibition (HepG2, 3 µM) turn out when “TACAGGGTTTTTATTCA (sugars e3 k2 d7 k2 e3, PS)” was run?
**A.** 11%

**Q.** For “CTCCAACATGCCTCTCT (sugars e3 k2 d7 k2 e3, PS)”, which target mRNA inhibition (HepG2, 3 µM) is on record?
**A.** 5%

**Q.** What does the source list for “GGCGATCCCAATTACACCAC (sugars e6 d8 e6, linkages s1 o3 s10 o3 s2)”?
**A.** target mRNA inhibition (A431, 0.062 µM): 7%; target mRNA inhibition (A431, 0.185 µM): 0%; target mRNA inhibition (A431, 0.556 µM): 0%; target mRNA inhibition (A431, 1.667 µM): 23%; target mRNA inhibition (A431, 5 µM): 14%; target mRNA inhibition (A431, 15 µM): 6%; target mRNA inhibition (SH-SY5Y, 0.062 µM): 0%; target mRNA inhibition (SH-SY5Y, 0.185 µM): 0%; target mRNA inhibition (SH-SY5Y, 0.556 µM): 8%; target mRNA inhibition (SH-SY5Y, 1.667 µM): 23%; target mRNA inhibition (SH-SY5Y, 5 µM): 49%; target mRNA inhibition (SH-SY5Y, 15 µM): 66%

**Q.** Which target mRNA inhibition (HepG2, 5 µM) does the source give for “AGATCACAGAATCTTCAATA (sugars e5 d10 e5, PS)” here?
**A.** 14% and 29%

**Q.** Which target mRNA inhibition (HepG2, 5 µM) does the source give for “GGCTTGAATGACAAAGA (sugars e2 k2 d8 k2 e3, PS)” here?
**A.** 54%

**Q.** With “CCAGACCTCCGCGCCTCGCC (sugars e5 d10 e5, PS)” as the sequence, how does the target mRNA inhibition (HepG2, 4 µM) read?
**A.** 46%

**Q.** With “ATGTTTATCAGGATACA (sugars e2 k2 d9 k2 e2, PS)” as the sequence, how does the target mRNA inhibition (HepG2, 0.1875 µM) read?
**A.** 27%

**Q.** And the target mRNA inhibition (HepG2, 0.75 µM)?
**A.** 65%

**Q.** And the target mRNA inhibition (HepG2, 3 µM)?
**A.** 88%

**Q.** And the target mRNA inhibition (HepG2, 4 µM)?
**A.** 81%

**Q.** And the target mRNA inhibition (HepG2, 12 µM)?
**A.** 96%

**Q.** “TCTTCATTTCCACCTTT (sugars e3 k2 d7 k2 e3, PS)” was tested. Which target mRNA inhibition (HepG2, 3 µM) did it give?
**A.** 31%

**Q.** For “CTTCTGCTCGAAATTGA (sugars e3 k2 d7 k2 e3, PS)”, which target mRNA inhibition (HepG2, 3 µM) is on record?
**A.** 13%

**Q.** “AAGTTTAATACCCATCT (sugars e3 k2 d7 k2 e3, PS)” was tested. Which target mRNA inhibition (HepG2, 3 µM) did it give?
**A.** 12%

**Q.** With “GGCGATCCCAATTACACCAC (sugars e6 d9 e5, linkages s1 o4 s10 o2 s2)” as the sequence, how does the target mRNA inhibition (A431, 0.062 µM) read?
**A.** 0%

**Q.** What about the target mRNA inhibition (A431, 0.185 µM) of the same sequence?
**A.** 0%

**Q.** What about the target mRNA inhibition (A431, 0.556 µM) of the same sequence?
**A.** 0%

**Q.** What about the target mRNA inhibition (A431, 1.667 µM) of the same sequence?
**A.** 0%

**Q.** And the target mRNA inhibition (A431, 5 µM)?
**A.** 4%

**Q.** And the target mRNA inhibition (A431, 15 µM)?
**A.** 0%

**Q.** What about the target mRNA inhibition (SH-SY5Y, 0.062 µM) of the same sequence?
**A.** 0%

**Q.** What about the target mRNA inhibition (SH-SY5Y, 0.185 µM) of the same sequence?
**A.** 3%

**Q.** What about the target mRNA inhibition (SH-SY5Y, 0.556 µM) of the same sequence?
**A.** 20%

**Q.** What about the target mRNA inhibition (SH-SY5Y, 1.667 µM) of the same sequence?
**A.** 38%

**Q.** And the target mRNA inhibition (SH-SY5Y, 5 µM)?
**A.** 61%

**Q.** What about the target mRNA inhibition (SH-SY5Y, 15 µM) of the same sequence?
**A.** 84%
